Assay results taken from patent US9937115B2, “Oral care compositions with improved flavor” (priority 2010, dated 2018).
Where a name gives a salt, the structure may show the parent alone. Read-outs that look alike come from different tables or passages of the source. Residues, ends and D or L forms follow the SMILES beside them.

Biological target: T1, TRPA1 receptor (Homo sapiens, UniProt O75762)
T1 construct: expressed in transfected cells; host or cells: HEK cell line
Test: cell-based
Parameters: activation: dose or concentration left out as unconfirmed
Experimental: The term “TRPA1 activator” as used herein refers to any component which at a concentration of 1 mM gives a calcium flux count of at least 1000 counts above the background level of calcium present in the cell according to the FLIPR method as discussed herein. The term “count” is defined as the change in fluorescence of the transfected cell lines due to the influx of calcium across the cell membrane, which reacts with the calcium sensitive dye present within the cells.
In order to select TRPA1 agonists that would be preferred for reducing off-tasting chemical components found in oral care compositions, calcium flux receptor activity on the TRPA1 was utilized as the criteria for selection of actives. With allyl isothiocyanate as the TRPA1 positive control, molecules that directly activated the TRPA1 receptor were screened in dimethylsulfoxide (DMSO). Pure molecules of each material were dissolved in DMSO at a concentration of 100 micormolar and then added to an HEK cell line containing the TRPA1 receptor. If they are TRPA1 agonists, they will cause a calcium flux in the cell which fluoresces and may then be measured using a FLIPR machine.

[1] = HEK293, percentage of the control (allyl isothiocyanate) calcium count, material dissolved in DMSO at 100 micromolar, HEK cells with TRPA1, direct addition, read-out: TRPA1 Direct addition
[2] = HEK293, percentage of the control (allyl isothiocyanate) calcium count, material dissolved in DMSO at 100 micromolar, HEK cells with TRPA1, pre-incubation, read-out: TRPA1 Pre-incubation
[3] = HEK293, read-out: TRPA1 Direct addition
[4] = HEK293, read-out: TRPA1 Pre-incubation
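Throughout, for TRPA1 Pre-incubation: values above 100 mean more active than the control.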

T1 sequence (O75762 whole entry): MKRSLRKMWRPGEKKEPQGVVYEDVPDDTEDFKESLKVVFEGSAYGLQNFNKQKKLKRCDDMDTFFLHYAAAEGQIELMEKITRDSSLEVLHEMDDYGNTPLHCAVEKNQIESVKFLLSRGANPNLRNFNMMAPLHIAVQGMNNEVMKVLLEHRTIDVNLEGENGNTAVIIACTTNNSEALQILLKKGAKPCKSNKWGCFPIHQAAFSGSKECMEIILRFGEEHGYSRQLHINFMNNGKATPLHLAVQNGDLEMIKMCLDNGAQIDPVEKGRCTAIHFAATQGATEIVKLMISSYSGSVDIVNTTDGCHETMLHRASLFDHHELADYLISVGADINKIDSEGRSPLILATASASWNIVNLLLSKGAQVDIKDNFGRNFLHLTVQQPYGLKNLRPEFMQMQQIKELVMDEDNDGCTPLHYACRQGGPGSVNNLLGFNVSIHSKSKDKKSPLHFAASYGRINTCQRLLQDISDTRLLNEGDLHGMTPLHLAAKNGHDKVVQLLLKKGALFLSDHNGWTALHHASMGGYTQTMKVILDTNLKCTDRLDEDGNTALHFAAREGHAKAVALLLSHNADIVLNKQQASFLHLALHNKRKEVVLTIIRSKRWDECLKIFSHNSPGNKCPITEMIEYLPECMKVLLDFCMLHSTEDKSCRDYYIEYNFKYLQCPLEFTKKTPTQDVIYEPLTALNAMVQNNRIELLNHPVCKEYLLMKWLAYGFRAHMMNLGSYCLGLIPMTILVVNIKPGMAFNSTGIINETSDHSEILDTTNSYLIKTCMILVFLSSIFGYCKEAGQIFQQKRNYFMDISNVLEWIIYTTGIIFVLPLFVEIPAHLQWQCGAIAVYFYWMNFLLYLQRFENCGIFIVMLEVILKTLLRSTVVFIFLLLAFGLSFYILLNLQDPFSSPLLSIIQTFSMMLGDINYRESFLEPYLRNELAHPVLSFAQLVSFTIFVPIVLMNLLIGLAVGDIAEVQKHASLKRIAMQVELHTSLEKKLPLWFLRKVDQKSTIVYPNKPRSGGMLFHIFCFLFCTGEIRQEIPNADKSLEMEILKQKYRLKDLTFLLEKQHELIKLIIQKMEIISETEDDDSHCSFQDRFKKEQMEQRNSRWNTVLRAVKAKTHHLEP

| Compound | activation at 100 µM [1] [%] | activation [2] [%] | further results |
| --- | --- | --- | --- |
| 2-Methybutyl Isovalerate |  |  | TRPA1 Direct addition: −1.49%; TRPA1 Pre-incubation: 69.9% |
| CC=Cc1ccc(OCc2ccccc2)c(OC)c1 [1-Benzyloxy-2-Mehtoxy-4-(1-Propenyl) Benzene] |  |  | TRPA1 Direct addition: −3.8%; TRPA1 Pre-incubation: 30.8% |
| Cn1cccc1C=O [1-Methylpyrrole-2-carboxaldehyde] | -3.47 | -1.04 |  |
| Cc1cnc(C)c(C)n1 [2,3,5-Trimethyl-pyrazine] | -1.13 | 48.8 |  |
| CCc1ncc(C)nc1CC [2,3-Diethyl-5-Methylpyrazine] | 0.99 | 76.9 |  |
| Cc1nccnc1C [2,3-Dimethylpyrazine] | -1.77 | 62.6 |  |
| CCCC(=O)C(C)=O [2,3-Hexanedione] | -0.19 | 101 |  |
| Cc1cnc(C)cn1 [2,5-Dimethylpyrazine] | -1.08 | 66.8 |  |
| CC1=C(CC=O)C(C)(C)CCC1 [2,6,6-Trimethyl-1-cyclohexene-1-acetaldehyde] | -0.32 | 106 |  |
| COc1cccc(OC)c1O [2,6-Dimethoxyphenol] | -0.24 | 71.6 |  |
| CC(C)=CCCC(C)C=O (stereo not drawn) [2,6-Dimethyl-5-Heptenal] | -0.15 |  | activation at 100 µM [2]: 97.6% |
| CCc1cnccn1 [2-Ethylpyrazine] | -1.56 | 49.9 |  |
| CCc1ccccc1S [2-Ethylthiophenol] | 0.34 | 5.23 |  |
| COc1nccnc1C [2-Methoxy-3-Methylpyrazine] | -0.83 | 84.7 |  |
| C=Cc1ccc(O)c(OC)c1 [2-Methoxy-4-Vinylphenol] | 1.16 | 71.4 |  |
| CCC(C)CO (stereo not drawn) [2-Methyl-1-Butanol] | -1.19 | 71.6 |  |
| CCC=C(C)C(=O)O [2-Methyl-2-Pentenoic Acid] | -1.27 | 73.8 |  |
| CCC(C)COC(C)=O (stereo not drawn) [2-Methylbutyl Acetate] | -0.99 | 60.3 |  |
| CC1OCCC1=O (stereo not drawn) [2-Methyltetrahydrofuran-3-one] | -1.5 | 77.5 |  |
| CCCCCCCCCC(C)C=O (stereo not drawn) [2-Methylundecanal] | 0.82 | 79.8 |  |
| CCCCCCCCCCCC(C)=O [2-Tridecanone] | 7.21 | 60.8 |  |
| CCC(C)C1CCCCC1=O (stereo not drawn) [2-sec-Butylcyclohexanon] | -1.47 | 63.7 |  |
| CC(CC=O)CC(C)(C)C (stereo not drawn) [3,5,5-Trimethyl Hexanal] | 75.7 | 92.2 |  |
| CSCCCO [3-(Methylthio) Propanol] | -0.92 | 73.1 |  |
| CC(=O)c1cc(C)sc1C [3-Acetyl-2,5-Dimethylthiophene] | 5.75 | 64.4 |  |

| Compound | activation at 100 µM [1] [%] | activation [2] [%] | further results |
| --- | --- | --- | --- |
| CC(C)=CC=O [3-Methyl-2-Butenal] | 34.4 | 66.3 |  |
| CCC(C)C(=O)OCCC(C)C (stereo not drawn) [3-Methylbutyl-2-Methylbutanoate] | -1.18 | 71.4 |  |
| OCCCc1ccccc1 [3-Phenyl-1-Propanol] | -0.04 | 92.2 |  |
| CCC=C1OC(=O)c2ccccc21 [3-Propylidenephthalide] | 116 | 6.21 |  |
| Cc1coc2c1CCC(C)C2 (stereo not drawn) [4,5,6,7-Tetrahydro-3,6-Dimethylbenzofuran] | 0.57 | 84.8 |  |
| CC1=C(O)C(=O)OC1C (stereo not drawn) [4,5-Dimethyl-3-Hydroxy-2,5-Dihydrofuran-2-one] | 0.18 | 89.1 |  |
| COc1ccc(CCC(C)=O)cc1 [4-(4-Methoxyphenyl)-2-Butanone] | -3.93 | 71.3 |  |
| C=CCc1cc(OC)c(O)c(OC)c1 [4-Allyl-2,6-Dimethoxyphenol] | 39.2 | 15.5 |  |
| CC1=C(O)C(=O)C(C)O1 (stereo not drawn) [4-Hydroxy-2,5-Dimethyl-3(2H)-Furanone] | 2.68 | 72 |  |
| COc1cc(C)cc(OC)c1O [4-Methyl-2,6-Dimethoxyphenol] | 45.9 | 9.25 |  |
| CC(=O)OCCc1scnc1C [4-Methyl-5-Thiazoleethanol Acetate] | 0.62 | 76.4 |  |
| Cc1ncsc1CCO [4-Methyl-5-Thiazoleethanol] | 0.56 | 72.8 |  |
| CCC1OC(=O)C(O)=C1C (stereo not drawn) [5-Ethyl-3-Hydroxy-4-Methyl-2(5H)-Furanone] | 1.79 | 72.5 |  |
| CC=CC(=O)C(C)CC (stereo not drawn) [5-Methyl-2-Hepten-4-one] | 15.5 | 87.8 |  |
| CC(C)CC=C(C=O)c1ccccc1 [5-Methyl-2-Phenyl-2-Hexenal] |  |  | activation [3]: 132%; activation [4]: -11.7% |
| CC1=CC(=O)[N-]S(=O)(=O)O1.[K+] [Acesulfame K] |  |  | TRPA1 Direct addition: −0.12%; TRPA1 Pre-incubation: 95.57% |
| CC(=O)O [Acetic Acid] |  |  | activation [3]: 0.27%; activation [4]: 68.5% |
| CC(=O)C(C)O (stereo not drawn) [Acetoin] | 0.29 | 82.6 |  |
| CC(=O)c1ccccc1 [Acetophenone] | 0.64 | 81.1 |  |
| C=CCOC(=O)CCC [Allyl Butyrate] | 0.02 | 98 |  |
| C=CCOC(=O)CCC1CCCCC1 [Allyl Cyclohexanepropionate] | 0.45 | 81.7 |  |
| C=CCOC(=O)CCCCC [Allyl Hexanoate] | 0.75 | 88.1 |  |
| C=CCN=C=S [Allyl Isothiocyanate, reference compound] |  | 21.6 | % of AITC Receptor Activation (from Data in Table II) (restated in Table III from Table II): 100% |
| C=CCOC(=O)CCCCCCCC [Allyl Nonanoate] | -1.87 | 69.6 |  |
| C=CCOC(=O)c1ccccc1N [Allyl anthranilate] | 0.29 | 99.5 |  |

| Compound | activation at 100 µM [1] [%] | activation [2] [%] | further results |
| --- | --- | --- | --- |
| CC(=O)OC(C)(C)Cc1ccccc1 [Alpha, Alpha Dimethylphenethyl Acetate] | -3.2 | 72 |  |
| CCCCCC(=Cc1ccccc1)C(OC)OC [Alpha-Amylcinnamaldehyde Dimethyl acetal] | -2.4 | -0.12 |  |
| CC(=O)OC(C)c1ccccc1 (stereo not drawn) [Alpha-Methylbenzyl Acetate] | 1.45 | 70.8 |  |
| CC1=CCC2CC1C2(C)C (stereo not drawn) [Alpha-Pinene] | -3.07 | 86.6 |  |
| CC1=CCC(C(C)(C)O)CC1 (stereo not drawn) [Alpha-Terpineol] | 15.8 | 60.5 |  |
| CCCCCOC(=O)c1ccco1 [Amyl 2-Furoate] | -2.39 | 74.1 |  |
| CCCCCO [Amyl Alcohol] | -1.94 | 85.9 |  |
| CCCCCOC(=O)CCC [Amyl Butyrate] | -2.64 | 75.9 |  |
| COC(=O)[C@H](Cc1ccccc1)NC(=O)[C@@H](N)CC(=O)O [Aspartame] (H-Asp-Phe-OMe) | -2.15 | 80 |  |
| COC(OC)c1ccccc1 [Benzaldehyde Dimethyl Acetal] |  |  | activation [3]: -0.68%; activation [4]: 120% |
| O=Cc1ccccc1 [Benzaldehyde] | -1.46 | 90.1 |  |
| O=C(c1ccccc1)C(O)c1ccccc1 (stereo not drawn) [Benzoin] | -0.5 | 56.2 |  |
| c1ccc2scnc2c1 [Benzothiazole] | -2.29 | 81.5 |  |
| CC(=O)OCc1ccccc1 [Benzyl Acetate] | -0.31 | 74.5 |  |
| OCc1ccccc1 [Benzyl Alcohol] | 21.4 | 14.6 |  |
| O=C(OCc1ccccc1)c1ccccc1 [Benzyl Benzoate] | 53.9 | 18.9 |  |
| CCCC(=O)OCc1ccccc1 [Benzyl Butyrate] | -3.01 | 58.7 |  |
| O=C(C=Cc1ccccc1)OCc1ccccc1 [Benzyl Cinnamate] |  | 81.1 | activation [1]: -2.39% |
| CCOCc1ccccc1 [Benzyl Ethyl Ether] | -2.24 | 66.2 |  |
| O=COCc1ccccc1 [Benzyl Formate] |  | 75.3 | activation [1]: -3.01% |
| CC(C)C(=O)OCc1ccccc1 [Benzyl Isobutyrate] | -2.7 | 65 |  |
| CCC(=O)OCc1ccccc1 [Benzyl Propionate] | 0.52 | 63 |  |
| C=C1CC/C=C(\C)CC[C@@H]2[C@@H]1CC2(C)C [Beta-Caryophyllene] | 0.21 | 97.8 |  |
| C=C1CCC2CC1C2(C)C (stereo not drawn) [Beta-Pinene] | -6.02 | 73.6 |  |
| CC1(C)C2CCC1(C)C(O)C2 (stereo not drawn) [Borneol] | -1.6 | 51 |  |
